Reference: patent US8592456B2 (4SC Discovery GmbH, priority 2011, dated 2013)
Read-outs that look alike come from different tables or passages of the source.

Test system: PBMC (T cell proliferation)
Experiment: T cell proliferation assay, PHA-stimulated human PBMC (BrdU ELISA)
Format: cell-based
Settings: 48 hours, BrdU
Method: Cell proliferation was analysed using the BrdU based cell proliferation ELISA from Roche (Mannheim, Germany) according to the manufacturer's instructions.
T Cell Proliferation Assay
Peripheral blood mononuclear cells (PBMC) from healthy human donors were isolated by centrifugation over Ficoll-Hypaque (Sigma-Aldrich, Germany) according to manufacturer's instructions. Purified PBMC were washed twice with PBS and resuspended in RPMI1640 culture medium supplemented with 10% dialyzed heat inactivated fetal calf serum, 1.5 mM L-glutamine, 100 U penicillin/ml, and […] (all from PAN Biotech, Aidenbach, Germany). For stimulation, PBMC were seeded at 1×10^5 cells/well, activated with 2 μg/ml phytohaemagglutinin (PHA, Sigma) and incubated with the test compound. After 48 hours proliferation was measured using the BrdU based cell proliferation ELISA from Roche (Mannheim, Germany) according to the manual.

[1] = human PBMC, 2 μg/ml PHA, read-out: D: IC50 (Tcell proliferation)
[2] = PHA-stimulated human PBMC, column D, activity classes 1-4, read-out: IC50 (Tcell proliferation)

Structure (SMILES) | IC50 [1] [nM] | IC50 [2] [nM]
Fc1cccc(Cl)c1-c1noc(-c2cnn(-c3cccc(Cl)c3)c2C(F)(F)F)c1Br [Example 140, 4-bromo-3-(2-chloro-6-fluorophenyl)-5-(1-(3-chlorophenyl)-5-(trifluoromethyl)-1H-pyrazol-4-yl)isoxazole] | 10 to 100 | 
COC(=O)c1c(-c2c(F)cccc2Cl)noc1-c1cnn(-c2cc(F)cc(F)c2)c1C(F)(F)F [Example 50, methyl 3-(2-chloro-6-fluorophenyl)-5-(1-(3,5-difluorophenyl)-5-(trifluoromethyl)-1H-pyrazol-4-yl)isoxazole-4-carboxylate] | < 10 | 
COc1csc(-c2c(-c3c(F)cccc3Cl)noc2-c2cnn(-c3cccc(F)c3)c2C(F)(F)F)n1 [Example I-10, 3-(2-chloro-6-fluorophenyl)-5-(1-(3-fluorophenyl)-5-(trifluoromethyl)-1H-pyrazol-4-yl)-4-(4-methoxythiazol-2-yl)isoxazole] |  | 10 to 100
CCOC(=O)c1c(-c2onc(-c3c(F)cccc3Cl)c2C(=O)OC)cnn1-c1cc(F)cc(F)c1 [Example 39, methyl 3-(2-chloro-6-fluorophenyl)-5-(1-(3,5-difluorophenyl)-5-(ethoxycarbonyl)-1-H-pyrazol-4-yl)isoxazole-4-carboxylate] | 1000 to 10000 | 
COC(=O)c1c(-c2c(F)cccc2Cl)noc1-c1cnn(-c2ccccc2Cl)c1C(F)(F)F [Example B-20, methyl 3-(2-chloro-6-fluorophenyl)-5-(1-(2-chlorophenyl)-5-(trifluoromethyl)-1H-pyrazol-4-yl)isoxazole-4-carboxylate] | 1000 to 10000 | 
COC(=O)c1c(-c2c(F)cccc2Cl)noc1-c1cnn(-c2cccc(NC(C)=O)c2)c1C(F)(F)F [Example B-89, 5-(1-(3-acetamidophenyl)-5-(trifluoromethyl)-1H-pyrazol-4-yl)-3-(2-chloro-6-fluorophenyl)isoxazole-4-carboxylate] | 100 to 1000 | 
COC(=O)c1c(-c2c(F)cccc2Cl)noc1-c1cnn(-c2cccc(C(F)(F)F)c2)c1C(F)(F)F [Example 82, methyl 3-(2-chloro-6-fluorophenyl)-5-(5-(trifluoromethyl)-1-(3-(trifluoromethyl)phenyl)-1H-pyrazol-4-yl)isoxazole-4-carboxylate] | 1000 to 10000 | 
CCOC(=O)c1c(-c2c(F)cccc2Cl)noc1-c1cnn(-c2ccccc2Br)c1C(F)(F)F [Example B-72, ethyl 5-(1-(2-bromophenyl)-5-(trifluoromethyl)-1H-pyrazol-4-yl)-3-(2-chloro-6-fluorophenyl)isoxazole-4-carboxylate] | 100 to 1000 | 
Fc1ccccc1-n1ncc(-c2onc(-c3c(F)cccc3Cl)c2Br)c1C(F)(F)F [Example B-26, 4-bromo-3-(2-chloro-6-fluorophenyl)-5-(1-(2-fluorophenyl)-5-(trifluoromethyl)-1H-pyrazol-4-yl)isoxazole] | 1000 to 10000 | 
CCOC(=O)c1c(-c2c(F)cccc2Cl)noc1-c1cnn(CC2CCOCC2)c1C(F)(F)F [Example B-81, ethyl 3-(2-chloro-6-fluorophenyl)-5-(1-((tetrahydro-2H-pyran-4-yl)methyl)-5-(trifluoromethyl)-1H-pyrazol-4-yl)isoxazole-4-carboxylate] | 100 to 1000 | 
CCOC(=O)c1csc(-c2c(-c3c(F)cccc3Cl)noc2-c2cnn(-c3cccc(F)c3)c2C(F)(F)F)n1 [IB-1, ethyl 2-{3-(2-chloro-6-fluorophenyl)-5-[1-(3-fluorophenyl)-5-(trifluoromethyl)-1H-pyrazol-4-yl]isoxazol-4-yl}-1,3-thiazole-4-carboxylate] |  | 100 to 1000
CCOC(=O)c1c(-c2ccncc2F)noc1-c1cnn(-c2ccccc2F)c1C(F)(F)F [Example B-15, ethyl 5-(1-(2-fluorophenyl)-5-(trifluoromethyl)-1H-pyrazol-4-yl)-3-(3-fluoropyridin-4-yl)isoxazole-4-carboxylate] | 100 to 1000 | 
COC(=O)c1c(-c2ccc(Cl)cc2Cl)noc1-c1cnn(-c2cccc(F)c2)c1C(F)(F)F [Example 111, methyl 3-(2,4-dichlorophenyl)-5-(1-(3-fluorophenyl)-5-(trifluoromethyl)-1H-pyrazol-4-y)isoxazole-4-carboxylate] | 100 to 1000 | 
COC(=O)c1c(-c2c(F)cccc2Cl)noc1-c1cnn(-c2cccc(F)c2)c1 [Example B-21, methyl 3-(2-chloro-6-fluorophenyl)-5-(1-(3-fluorophenyl)-1H-pyrazol-4-yl)isoxazole-4-carboxylate] | 100 to 1000 | 
COC(=O)c1c(-c2c(F)cccc2Cl)noc1-c1cnn(-c2cc(C)nc(C)n2)c1C(F)(F)F [Example 119, methyl 3-(2-chloro-6-fluorophenyl)-5-(1-(2,6-dimethylpyrimidin-4-yl)-5-(trifluoromethyl)-1H-pyrazol-4-yl)isoxazole-4-carboxylate] | 100 to 1000 | 
CON(C)C(=O)c1c(-c2c(F)cccc2Cl)noc1-c1cnn(-c2ccccc2Br)c1C(F)(F)F [Example B-74, 5-(1-(2-bromophenyl)-5-(trifluoromethyl)-1H-pyrazol-4-yl)-3-(2-chloro-6-fluorophenyl)-N-methoxy-N-methylisoxazole-4-carboxamide] | 1000 to 10000 | 
CON(C)C(=O)c1c(-c2ccccc2F)noc1-c1cnn(-c2cccc(F)c2)c1C(F)(F)F [Example 94, 3-(2-fluorophenyl)-5-(1-(3-fluorophenyl)-5-(trifluoromethyl)-1H-pyrazol-4-yl)-N-methoxy-N-methylisoxazole-4-carboxamide] | 1000 to 10000 | 
CCOC(=O)c1c(-c2ccc(Cl)cc2Cl)noc1-c1cnn(-c2cccc(Cl)c2)c1C(F)(F)F [Example B-46, ethyl 5-(1-(3-chlorophenyl)-5-(trifluoromethyl)-1H-pyrazol-4-yl)-3-(2,4-dichlorophenyl)-isoxazole-4-carboxylate] | 100 to 1000 | 
Fc1cccc(-n2ncc(-c3onc(-c4c(F)cccc4Cl)c3-c3ccco3)c2C(F)(F)F)c1 [Example I-17, 3-(2-chloro-6-fluorophenyl)-5-(1-(3-fluorophenyl)-5-(trifluoromethyl)-1H-pyrazol-4-yl)-4-(furan-2-yl)isoxazole] |  | < 10
O=CNc1c(-c2c(F)cccc2Cl)noc1-c1cnn(-c2cccc(Cl)c2)c1C(F)(F)F [Example B-48, N-(3-(2-chloro-6-fluorophenyl)-5-(1-(3-chlorophenyl)-5-(trifluoromethyl)-1H-pyrazol-4-yl)isoxazol-4-yl)formamide] | 1000 to 10000 | 
COC(=O)c1c(-c2c(F)cccc2Cl)noc1-c1cnn(-c2cccc(F)c2)c1C(F)(F)C(F)F [Example 64, methyl 3-(2-chloro-6-fluorophenyl)-5-(1-(3-fluorophenyl)-5-(1,1,2,2-tetrafluoroethyl)-1H-pyrazol-4-yl)isoxazole-4-carboxylate] | 1000 to 10000 | 
Cc1nnc(-c2c(-c3c(F)cccc3Cl)noc2-c2cnn(-c3cccc(Cl)c3)c2C(F)(F)F)s1 [IB-3, 3-(2-chloro-6-fluorophenyl)-5-(1-(3-chlorophenyl)-5-(trifluoromethyl)-1H-pyrazol-4-yl)-4-(5-methyl-1,3,4-thiadiazol-2-yl)isoxazole] |  | < 10
CCOC(=O)c1c(-c2c(F)cccc2Cl)noc1-c1cnn(-c2cccc(C#N)c2)c1C(F)(F)F [Example B-32, ethyl 3-(2-chloro-6-fluorophenyl)-5-(1-(3-cyanophenyl)-5-(trifluoromethyl)-1H-pyrazol-4-yl)isoxazole-4-carboxylate] | 10 to 100 | 
O=C(c1c(-c2c(F)cccc2Cl)noc1-c1cnn(-c2ccccc2Cl)c1C(F)(F)F)N1CCCO1 [Example B-49, (3-(2-chloro-6-fluorophenyl)-5-(1-(2-chlorophenyl)-5-(trifluoromethyl)-1H-pyrazol-4-yl)isozazol-4-yl)(isoxazolidin-2-yl)methanone] | 1000 to 10000 | 
Cc1nnc(-c2c(-c3c(F)cccc3Cl)noc2-c2cnn(-c3cccnc3)c2C(F)(F)F)s1 [IB-21, 3-(2-chloro-6-fluorophenyl)-4-(5-methyl-1,3,4-thiadiazol-2-yl)-5-(1-(pyridin-3-yl)-5-(trifluoromethyl)-1H-pyrazol-4-yl)isoxazole] |  | 10 to 100
CNC(=S)c1c(-c2c(F)cccc2Cl)noc1-c1cnn(-c2ccc(F)cc2)c1C(F)(F)F [Example 76, 3-(2-chloro-6-fluorophenyl)-5-(1-(4-fluorophenyl)-5-(trifluoromethyl)-1H-pyrazol-4-yl)-N-methylisoxazole-4-carbothioamide] | 1000 to 10000 | 
CNC(=O)c1c(-c2c(F)cccc2Cl)noc1-c1cnn(-c2ccc(F)cc2)c1C(F)(F)F [Example 55, 3-(2-chloro-6-fluorophenyl)-5-(1-(4-fluorophenyl)-5-(trifluoromethyl)-1H-pyrazol-4-yl)-N-methylisoxazole-4-carboxamide] | 100 to 1000 | 
Fc1cccc(Cl)c1-c1noc(-c2cnn(-c3ccncc3)c2C(F)(F)F)c1-c1nnco1 [IB-16, 2-(3-(2-chloro-6-fluorophenyl)-5-(1-(pyridin-4-yl)-5-(trifluoromethyl)-1H-pyrazol-4-yl)isoxazol-4-yl)-1,3,4-oxadiazole] |  | 100 to 1000
Fc1cccc(Cl)c1-c1noc(-c2cnn(-c3cccc(Cl)c3)c2C(F)(F)F)c1-c1nccs1 [Example I-5, 3-(2-chloro-6-fluorophenyl)-5-(1-(3-chlorophenyl)-5-(trifluoromethyl)-1H-pyrazol-4-yl)-4-(thiazol-2-yl)isoxazole] |  | < 10
O=C(c1c(-c2c(F)cccc2Cl)noc1-c1cnn(-c2ccccc2F)c1C(F)(F)F)N1CCOCC1 [Example 16, (3-(2-chloro-6-fluorophenyl)-5-(1-(2-fluorophenyl)-5-(trifluoromethyl)-1H-pyrazol-4-yl)isoxazol-4-yl)(morpholino)methanone] | 1000 to 10000 | 
